This is an account of results in the supplement of paper PMC10307832.

Common to all, as to assay: relative viability (nuclei count vs DMSO), 5 days (fraction); higher = more cells survive
Compound in the experiment “ALW-II-49-7 + Luminespib”: Cc1ccc(C(=O)Nc2cccc(C(F)(F)F)c2)cc1Nc1cncc(C(N)=O)c1 [ALW-II-49-7] + CCNC(=O)c1noc(-c2cc(C(C)C)c(O)cc2O)c1-c1ccc(CN2CCOCC2)cc1 [Luminespib] (partner 0.01 µM)
The essentials:
(§1)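 Values are medians from duplicate plates. Each reflects relative viability, defined as the nuclei count of treated wells over that of vehicle wells. Lung cancer cell lines in 1536-well plates were pin-tool dosed one day after seeding with one drug alone or with a fixed anchor-drug dose plus five library-drug doses (not always all listed) in √10 steps, then fixed, stained and imaged at 4× after 5 days.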

Compound in the experiment “ALW-II-49-7 + Phenformin”: Cc1ccc(C(=O)Nc2cccc(C(F)(F)F)c2)cc1Nc1cncc(C(N)=O)c1 [ALW-II-49-7] + N=C(N)NC(=N)NCCc1ccccc1 [Phenformin] (partner 250 µM)
The procedure, abridged:
as §1

Compound in the experiment “Dasatinib + Foretinib”: Cc1nc(Nc2ncc(C(=O)Nc3c(C)cccc3Cl)s2)cc(N2CCN(CCO)CC2)n1 [Dasatinib] + COc1cc2c(Oc3ccc(NC(=O)C4(C(=O)Nc5ccc(F)cc5)CC4)cc3F)ccnc2cc1OCCCN1CCOCC1 [Foretinib] (partner 0.25 µM)
The procedure, abridged: as §1

Compound in the experiment “Dasatinib + Pictilisib”: Cc1nc(Nc2ncc(C(=O)Nc3c(C)cccc3Cl)s2)cc(N2CCN(CCO)CC2)n1 [Dasatinib] + CS(=O)(=O)N1CCN(Cc2cc3nc(-c4cccc5[nH]ncc45)nc(N4CCOCC4)c3s2)CC1 [Pictilisib] (partner 1 µM)
The essentials:
as §1

NCI-H1355: the relative viability with ALW-II-49-7 + Luminespib (first compound 0.08 µM) was found to be 0.722; with ALW-II-49-7 + Luminespib (first compound 0.253 µM), 0.628; with ALW-II-49-7 + Luminespib (first compound 0.8 µM), 0.658; with ALW-II-49-7 + Luminespib (first compound 2.53 µM), 0.562; with ALW-II-49-7 + Luminespib (first compound 8 µM), 0.708; with ALW-II-49-7 + Phenformin (first compound 0.08 µM), 0.457. Moreover, the relative viability worked out at 0.4 with ALW-II-49-7 + Phenformin (first compound 0.253 µM); 0.4 in the experiment with ALW-II-49-7 + Phenformin (first compound 0.8 µM); 0.443 with ALW-II-49-7 + Phenformin (first compound 2.53 µM); 0.379 with ALW-II-49-7 + Phenformin (first compound 8 µM); 1.03 with Dasatinib + Foretinib (first compound 0.005 µM); 0.719 with Dasatinib + Foretinib (first compound 0.01581 µM). The relative viability is 0.908 with Dasatinib + Foretinib (first compound 0.05 µM); 0.722 in the experiment with Dasatinib + Foretinib (first compound 0.1581 µM); 0.644 with Dasatinib + Foretinib (first compound 0.5 µM); 0.452 with Dasatinib + Pictilisib (first compound 0.005 µM); 0.233 with Dasatinib + Pictilisib (first compound 0.01581 µM); 0.397 in the experiment with Dasatinib + Pictilisib (first compound 0.05 µM). The figures for the relative viability with Dasatinib + Pictilisib (first compound 0.1581 µM) and in the experiment with Dasatinib + Pictilisib (first compound 0.5 µM) were 0.297 and 0.282, respectively.
With NCI-H1395, the relative viability was found to be 0.754 with ALW-II-49-7 + Luminespib (first compound 0.08 µM); 0.796 with ALW-II-49-7 + Luminespib (first compound 0.253 µM); 0.823 with ALW-II-49-7 + Luminespib (first compound 0.8 µM); 0.716 with ALW-II-49-7 + Luminespib (first compound 2.53 µM); 0.706 in the experiment with ALW-II-49-7 + Luminespib (first compound 8 µM); 0.438 in the experiment with ALW-II-49-7 + Phenformin (first compound 0.08 µM). For the same cell line, the relative viability with ALW-II-49-7 + Phenformin (first compound 0.253 µM) is 0.512; in the experiment with ALW-II-49-7 + Phenformin (first compound 0.8 µM) it was 0.419; with ALW-II-49-7 + Phenformin (first compound 2.53 µM), 0.475; with ALW-II-49-7 + Phenformin (first compound 8 µM), 0.428; with Dasatinib + Foretinib (first compound 0.005 µM), 1; with Dasatinib + Foretinib (first compound 0.01581 µM), 1.08. For the same cell line, the relative viability amounted to 1.04 with Dasatinib + Foretinib (first compound 0.05 µM); 0.585 with Dasatinib + Foretinib (first compound 0.1581 µM); 0.331 with Dasatinib + Foretinib (first compound 0.5 µM); 0.713 in the experiment with Dasatinib + Pictilisib (first compound 0.005 µM); 0.593 with Dasatinib + Pictilisib (first compound 0.01581 µM); 0.552 in the experiment with Dasatinib + Pictilisib (first compound 0.05 µM). For the same cell line, the relative viability came to 0.337 in the experiment with Dasatinib + Pictilisib (first compound 0.1581 µM) and 0.376 in the experiment with Dasatinib + Pictilisib (first compound 0.5 µM).
Regarding NCI-H1437, the relative viability worked out at 1.13 with ALW-II-49-7 + Luminespib (first compound 0.08 µM); 1.12 in the experiment with ALW-II-49-7 + Luminespib (first compound 0.253 µM); 1.11 with ALW-II-49-7 + Luminespib (first compound 0.8 µM); 1.08 with ALW-II-49-7 + Luminespib (first compound 2.53 µM); 1.06 with ALW-II-49-7 + Luminespib (first compound 8 µM); 0.266 with ALW-II-49-7 + Phenformin (first compound 0.08 µM). Also, the relative viability was 0.297 with ALW-II-49-7 + Phenformin (first compound 0.253 µM); 0.301 in the experiment with ALW-II-49-7 + Phenformin (first compound 0.8 µM); 0.297 with ALW-II-49-7 + Phenformin (first compound 2.53 µM); 0.263 in the experiment with ALW-II-49-7 + Phenformin (first compound 8 µM); 1.25 in the experiment with Dasatinib + Foretinib (first compound 0.005 µM); 1.23 in the experiment with Dasatinib + Foretinib (first compound 0.01581 µM). The relative viability with Dasatinib + Foretinib (first compound 0.05 µM) is 1.32; with Dasatinib + Foretinib (first compound 0.1581 µM) it was 1.07; in the experiment with Dasatinib + Foretinib (first compound 0.5 µM), 0.848; with Dasatinib + Pictilisib (first compound 0.005 µM) it was 0.543; with Dasatinib + Pictilisib (first compound 0.01581 µM), 0.408; with Dasatinib + Pictilisib (first compound 0.05 µM) it was 0.37. The relative viability with Dasatinib + Pictilisib (first compound 0.1581 µM) is 0.31; with Dasatinib + Pictilisib (first compound 0.5 µM) it was 0.222.
Turning to NCI-H1563, the relative viability with ALW-II-49-7 + Luminespib (first compound 0.08 µM) was found to be 0.531; with ALW-II-49-7 + Luminespib (first compound 0.253 µM), 0.487; in the experiment with ALW-II-49-7 + Luminespib (first compound 0.8 µM), 0.503; in the experiment with ALW-II-49-7 + Luminespib (first compound 2.53 µM) it was 0.495; with ALW-II-49-7 + Luminespib (first compound 8 µM) it was 0.457; in the experiment with ALW-II-49-7 + Phenformin (first compound 0.08 µM), 0.65. In addition, the relative viability amounted to 0.71 with ALW-II-49-7 + Phenformin (first compound 0.253 µM); 0.67 in the experiment with ALW-II-49-7 + Phenformin (first compound 0.8 µM); 0.683 with ALW-II-49-7 + Phenformin (first compound 2.53 µM); 0.606 with ALW-II-49-7 + Phenformin (first compound 8 µM); 0.82 with Dasatinib + Foretinib (first compound 0.005 µM); 0.751 in the experiment with Dasatinib + Foretinib (first compound 0.01581 µM). The relative viability was 0.746 with Dasatinib + Foretinib (first compound 0.05 µM); 0.578 with Dasatinib + Foretinib (first compound 0.1581 µM); 0.517 in the experiment with Dasatinib + Foretinib (first compound 0.5 µM); 0.66 with Dasatinib + Pictilisib (first compound 0.005 µM); 0.564 with Dasatinib + Pictilisib (first compound 0.01581 µM); 0.584 in the experiment with Dasatinib + Pictilisib (first compound 0.05 µM). Besides, the relative viability with Dasatinib + Pictilisib (first compound 0.1581 µM) stood at 0.597; with Dasatinib + Pictilisib (first compound 0.5 µM), 0.558.
